Several values for one entry are separate records, joined by “and”; a condition that tells them apart may be missing. Equal values may be shown once.
Columns and labels:
A2780 = assay: MTT cell proliferation assay; assay type: cell-based, human; conditions: for IC50: Homo sapiens, A2780, MTT, 72 h treatment, n = 3, read-out: IC50 (µM ± SD) A2780; for Selectivity index A2780: IC50 MRC-5 / IC50 A2780
Description: (§1) MCF-7 (human breast adenocarcinoma), A2780 (human ovarian cancer) and HCT116 (human colorectal carcinoma), and MRC-5 (normal foetal lung fibroblast) cell lines were bought from the ATCC and were cultured in flasks which were incubated at 37 °C in an atmosphere of 5% CO2, 95% air, and 100% relative humidity, to maintain continuous logarithmic growth. MCF-7, A2780, and HCT116 were maintained in RPMI-1640 media (100 U/mL penicillin, 100 µg/mL streptomycin, and 10% foetal bovine serum, Gibco, Carlsbad, CA). MRC-5 cells were maintained in EMEM (100 U/mL penicillin, 100 µg/mL streptomycin, and 10% foetal bovine serum, Gibco, Carlsbad, CA). Doxorubicin (5 μg/mL, for three months) added for RPMI-1640 media containing MCF7 cells was used to develop doxorubicin-resistant MCF7/ADR cells. All cancer and normal cell lines were cultured according to our previous report. Cells were used within 10–20 passages and were checked for mycoplasma every 6 months, by measuring the bioluminescence (Myco Alert sample detection kit; Lonza, Basel, Switzerland) using the multiplate reader (Synergy HT, BioTek, Winooski, VT).
(§2) The MTT assay was used to measure the cytotoxicity and growth inhibitory activities and cytotoxicity of the new compounds according to our previous report[13]^,[17]. Cells from flasks of 70–80% confluency were separately seeded in 96-well flat-bottom microculture plates (Nalgene-Nunc, Thermo Fisher Scientific, Roskilde, Denmark) at a density of 3 × 10^3 cells (MCF-7, A2780, and MRC-5), 1 × 10^4 cells (HCT116), to a volume of 180 μL/well of culture medium. A Neubauer haemocytometer was used for cell counting. Cells were incubated at 37 °C overnight to allow attachment to the wells. The final concentrations of each compound in wells were: 0–50 μM in 200 μL of media (DMSO 0.1%). Lapatinib (Cayman, Ann Arbor, MI) was used as a positive control at the same final concentrations. Medium only (20 μL) was added to each control well, and each concentration was tested in triplicates (n = 3). Following incubation for 72 h, 50 μL MTT was added into each well. Plates were incubated for 3 h, the supernatant was aspirated, and 100 μL of DMSO was added to each well. The optical density (OD) of the purple formazan is proportional to the number of viable cells. […] GraphPad Prism version 5.00 for Windows was used for analysis (La Jolla, CA). Cytotoxicity of the new compounds was calculated after treatment of cancer/normal cell lines for 72 h. The absorbance of the reduced MTT was determined using a microplate reader A570 nm.
(§3) The cytotoxic activity of the new compounds (15a–e, 16a–e, 20, and 21) was evaluated in vitro using MTT assay. The MTT assay depends on the reduction of the yellow tetrazole dye (MTT) to the purple formazan by the active mitochondrial dehydrogenase enzymes indicating the viability of the cells which can be measured as OD. The new compounds were evaluated against three non-resistant cancer cell lines: MCF-7, and A2780 cell lines were selected to compare cytotoxicity of the new compounds with the previously reported results of compounds 9a,b[13]. Cytotoxicity of the new compounds was also evaluated also against HCT116 cells which lacks COX-2 protein[33]^,[34].

HCT116 = assay: MTT cell proliferation assay; assay type: cell-based, human; conditions: for IC50: Homo sapiens, HCT-116, MTT, 72 h treatment, n = 3, read-out: IC50 (µM ± SD) HCT116; for Selectivity index HCT116: IC50 MRC-5 / IC50 HCT116
Description: as §1, §2, §3

MCF-7 = assay: MTT cell proliferation assay; assay type: cell-based, human; conditions: for IC50: Homo sapiens, MCF7, MTT, 72 h treatment, n = 3, read-out: IC50 (µM ± SD) MCF-7; for Selectivity index MCF-7: IC50 MRC-5 / IC50 MCF-7
Description: as §1, §2, §3

[1] = test system: MCF-7, HCT116, and A2780 cancer cell lines; assay: MTT assay, three cancer cell lines taken together (average, overall range); assay type: cell-based, human; conditions: Homo sapiens; MCF-7, HCT116, A2780; read-out: Average of the three IC50 values against the three cancer cell lines
Description: Cells from flasks of 70–80% confluency were separately seeded in 96-well flat-bottom microculture plates (Nalgene-Nunc, Thermo Fisher Scientific, Roskilde, Denmark) at a density of 3 × 10^3 cells (MCF-7, A2780, and MRC-5), 1 × 10^4 cells (HCT116), to a volume of 180 μL/well of culture medium. […] The final concentrations of each compound in wells were: 0–50 μM in 200 μL of media (DMSO 0.1%). Lapatinib (Cayman, Ann Arbor, MI) was used as a positive control at the same final concentrations. Medium only (20 μL) was added to each control well, and each concentration was tested in triplicates (n = 3). Following incubation for 72 h, 50 μL MTT was added into each well. Plates were incubated for 3 h, the supernatant was aspirated, and 100 μL of DMSO was added to each well. The optical density (OD) of the purple formazan is proportional to the number of viable cells. […] The absorbance of the reduced MTT was determined using a microplate reader A570 nm.

normal MRC-5 cells = assay: MTT assay, normal cells (cytotoxic selectivity); assay type: cell-based; conditions: Homo sapiens, MRC5, 72 h treatment, n = 3, read-out: IC50 (µM ± SD) MRC-5
Description: as §1, §2
Selectivity towards cancerous cells is one of the important issues which must be considered during the discovery and development of new anticancer agents. To assess the toxicity and selectivity of the new compounds (15a–e, 16a–e, 20, and 21), their growth inhibitory activities against normal human foetal lung fibroblast MRC-5 cells were evaluated using the MTT assay. […] The selectivity of the new compounds towards each of the three cancer cell lines was calculated by dividing their IC50 values against normal MRC-5 cells by their IC50 values against the corresponding cancer cell line (Table 3).

MCF-7 cells = assay: Cell cycle analysis (flow cytometry); assay type: cell-based, human; conditions: 0.1 μM, 24 h
Description: Cell cycle perturbations of MCF-7 cells treated with compounds 16a,b,d at 0.1 µM concentration for 24 h was determined using FC500 flow cytometer (FC500, Beckman Coulter, Miami, FL). The cell cycle analysis was performed according to our previous report.
Based on the results of the MTT assay (Table 1), compounds 16a,b,d were selected to investigate their effect on cell cycle phases of MCF-7 cells. The cancer cells were treated with the test compounds at 0.1 μM and vehicle (control) for 24 h according to the previous report. Cell cycle analysis was performed using FC500 flow cytometer (FC500, Beckman Coulter, Miami, FL). […] On the other hand, the S phase was the least affected with less than a twofold decrease.

SMILES	IC50 (A2780)	Selectivity index A2780 (A2780)	IC50 (HCT116)	Selectivity index HCT116 (HCT116)	IC50 (MCF-7)	Selectivity index MCF-7 (MCF-7)	IC50 [1]	IC50 (normal MRC-5 cells)	Cell cycle stage % G1 (MCF-7 cells)	Cell cycle stage % G2/M (MCF-7 cells)	Cell cycle stage % S (MCF-7 cells)	Cell cycle stage % preG1 (MCF-7 cells)	melting point
COc1cc(C(=O)Nc2c(C#N)c3n(c2C(=O)Nc2ccccc2)CCC3)cc(OC)c1OC [16a, 7-Cyano-N-phenyl-6-(3,4,5-trimethoxybenzamido)-2,3-dihydro-1H-pyrrolizine-5-carboxamide]	0.044 ± 0.01 µM	3.52	0.135 ± 0.007 µM	1.15	0.082 ± 0.002 µM	1.89	87 nM	0.155 ± 0.062 µM	10.69 ± 1.32%	37.38 ± 4.66%	25.93 ± 3.47%	26.92 ± 3.07%	253 to 255 °C
COc1cc(C(=O)Nc2c(C#N)c3n(c2C(=O)Nc2ccc(C)cc2)CCC3)cc(OC)c1OC [16b, 7-Cyano-N-(p-tolyl)-6-(3,4,5-trimethoxybenzamido)-2,3-dihydro-1H-pyrrolizine-5-carboxamide]	0.18 ± 0.043 µM	32.51	0.092 ± 0.001 µM	63.60	0.068 ± 0.009 µM	86.04	113 nM	5.85 ± 1.19 µM	13.19 ± 2.95%	35.35 ± 4.19%	28.46 ± 2.79%	22.43 ± 2.24%	265 to 267 °C
COc1cc(C(=O)Nc2c(C#N)c3n(c2C(=O)Nc2ccc(Cl)cc2)CCC3)cc(OC)c1OC [16d, N-(4-Chlorophenyl)-7-cyano-6-(3,4,5-trimethoxybenzamido) -2,3-dihydro-1H-pyrrolizine-5-carboxamide]	0.03 ± 0.005 µM	270.00	0.097 ± 0.001 µM	83.51	0.071 ± 0.001 µM	114.08	66 nM	8.1 ± 0.897 µM	5.46 ± 0.87%	45.62% and 45.62 ± 5.25%	24.92 ± 2.22%	27.56% and 27.56 ± 3.93%	281 to 283 °C
